# Assay results as given in PMC5298231, “The Malaria Parasite's Lactate Transporter PfFNT Is the Target of Antiplasmodial Compounds Identified in Whole Cell Phenotypic Screens” (PLoS Pathogens, 2017).
# Tests used:
# Dd2 parent parasites = assay: Parasite proliferation assay, Dd2 parent; type: cell-based, Plasmodium falciparum; settings: Dd2 parent; mean ± SEM; read-out: IC50 value, growth inhibition
# Procedure: Parasite proliferation was measured in 96-well plates using a fluorescent DNA-intercalating dye [45]. The assays were initiated with erythrocytes infected with predominantly ring-stage parasites, and the starting parasitaemia was 0.5–1% and the haematocrit was 1%.
# [1] = ref [36]; cited from earlier work
# [2] = tested on: MMV007839-selected culture B (PfFNT Gly107Ser); assay: Parasite proliferation assay, MMV007839-selected culture B; type: cell-based, Plasmodium falciparum; settings: MMV007839-selected culture B; mean ± SEM; read-out: IC50 value, growth inhibition
# Procedure: Parasite proliferation was measured in 96-well plates using a fluorescent DNA-intercalating dye. The assays were initiated with erythrocytes infected with predominantly ring-stage parasites, and the starting parasitaemia was 0.5–1% and the haematocrit was 1%.
# For MMV007839-selected culture A, the drug concentration was increased by 5 nM increments on Day 18, Day 21, and every two days thereafter. […] The cultures were provided with fresh medium and blood and diluted to reduce the parasitaemia as needed.
# [3] = tested on: erythrocytes infected with 3D7 trophozoites; type: cell-based, Plasmodium falciparum; settings: 1 μM, within 10 min; mean ± SEM, n = 3
# From the text: (§1) Fig 6 The effect of MMV007839 on the volume of parasites and parasitised erythrocytes. […] The data are expressed as a percentage volume increase relative to the starting volume, which for isolated parasites (A) ranged from 35 fL to 46 fL in the individual experiments, and for intact infected erythrocytes (B) ranged from 73 fL to 79 fL. In both cases the data shown are the mean ± SEM from three independent experiments performed on different days. For each condition, the (pre-normalised) volume data for each time point greater than 0 was tested for statistical significance compared to the time zero data for that condition; **P < 0.01, ***P < 0.001.
# (§2) The volume of saponin-isolated 3D7 trophozoites and of erythrocytes infected with 3D7 trophozoites was measured using a Beckman Coulter Multisizer 4 fitted with a 100 μm ‘aperture tube’. […] The electrolyte solution within the aperture tube was the same as the Experimental Saline Solution except that it lacked glucose. For experiments on infected erythrocytes, the infected cells were separated from uninfected erythrocytes using a Miltenyi Biotec VarioMACS Magnet and the cells were maintained at 37°C in bicarbonate-free RPMI supplemented with 25 mM HEPES, additional glucose (11 mM) and 0.2 mM hypoxanthine, and pH-adjusted to 7.40. For these measurements the electrolyte solution within the aperture tube differed only from this medium in that it was not supplemented with hypoxanthine or additional glucose. For each measurement of cell volume, approximately 20,000 pulses (each corresponding to the passage of a single cell through the aperture) were recorded. The median volume of the cells within each sample was determined by fitting a log Gaussian distribution curve to the population data.
# [4] = tested on: saponin-isolated 3D7 P. falciparum trophozoites; type: cell-based, Plasmodium falciparum; settings: 1 μM, within 10 min; mean ± SEM, n = 3
# From the text: as §1, §2
# [5] = tested on: 3D7 P. falciparum trophozoites; assay: Cytosolic pH (pHcyt) measurement in BCECF-loaded saponin-isolated trophozoites
compound,measurement,setting,value
COc1ccc2c(c1)OC(O)(C(F)(F)C(F)(F)F)CC2=O (stereo not drawn) [MMV007839],IC50,Dd2 parent parasites,140 ± 20 nM
same,Toxicity in Malaria Box toxicity testing,[1],display toxicity in some assays
same,IC50,[2],37.5 ± 2.7 µM
same,Volume increase of erythrocytes infected with 3D7 trophozoites,[3],5.4 ± 1.0 fL
same,Volume increase of erythrocytes infected with 3D7 trophozoites relative to starting volume,[3],7.2 ± 1.3%
same,Volume increase of isolated parasites,[4],5.1 ± 0.8 fL
same,Volume increase of isolated parasites relative to starting volume,[4],13.1 ± 2.8%
same,Lactate-induced abrupt acidification of parasite cytosol after pre-treatment,"[5]; 2.5 μM pre-treatment, 10 mM L-lactate, 4°C",no such abrupt acidification
same,Rate of cytosolic acidification after addition of lactate,"[5]; 2.5 μM, 4°C, 10 mM L-lactate, mean ± SEM, n = 3",0.011 ± 0.004 pH unit/min
same,Rate of cytosolic acidification before addition of lactate,"[5]; 2.5 μM, 4°C, mean ± SEM, n = 3",0.011 ± 0.003 pH unit/min
same,Cytosolic pH restored after restoration of glucose,"[5]; 2.5 μM, glucose (22 mM) restored to glucose-deprived parasites, gradual alkalinisation after initial acidification of ~2 min",approximately 7.1
same,Effect on cytosolic pH in glucose-containing medium,"[5]; glucose-containing medium, 37°C (Fig 2B,C: 1 μM)",cytosolic acidification
